Measurements reported in patent US10227357B2, “Compounds and methods for kinase modulation, and indications therefor” (Plexxikon Inc., priority 2012, dated 2019).

Experiments:
c-kit mutant D816V = target: T1, c-kit mutant D816V (Homo sapiens, UniProt P10721, D816V/DEL694-753); experiment: c-Kit mutant D816V biochemical assay, AlphaScreen; details: c-kit D816V biochemical inhibitory activity; read-out: Biochemical activity (IC50 μM) Kit D816V
T1 construct: residues 551-934, kinase insertion domain residues 694-753 deleted; 6x-histidine (N); made in house; host or cells: E. coli Arctic Express (DE3) RIL (Stratagene)
How it was run: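 Eight-point, threefold compound series incubated 30 min at room temperature with E. coli-produced D816V kinase, 10 μM ATP, Mg2+/Mn2+ HEPES buffer pH 7.2 and 5% DMSO. After EDTA stop, streptavidin and anti-phosphotyrosine (PY20) AlphaScreen beads gave the read-out, and IC50 was fitted from the concentration–signal curve.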

c-kit kinase = target: T2, c-kit kinase (Homo sapiens, UniProt P10721); experiment: c-Kit biochemical assay, AlphaScreen, 10 μM ATP; details: c-kit biochemical inhibitory activity; read-out: Biochemical activity (IC50 μM) Kit
T2 construct: The c-kit (or kinase domain thereof) is an active kinase in AlphaScreen; poly-Histidine tag (in-house protein only) (cleaved yes); host or cells: E. coli BL21(DE3)RIL, co-expressed with PTP1B
How it was run: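 His-tagged c-Kit expressed in E. coli with co-expressed PTP1B (dephosphorylated), tag removed; 0.1 ng per reaction with biotinylated-peptide substrate in 50 mM HEPES pH 7.2, 5 mM MgCl2, 5 mM MnCl2, 5% DMSO, 10 μM ATP, 1 h at room temperature. Phosphorylation detected by AlphaScreen (streptavidin donor, PY20 acceptor beads); IC50 from 8-point 1:3 dilution series.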

T2 sequence (P10721 26-976): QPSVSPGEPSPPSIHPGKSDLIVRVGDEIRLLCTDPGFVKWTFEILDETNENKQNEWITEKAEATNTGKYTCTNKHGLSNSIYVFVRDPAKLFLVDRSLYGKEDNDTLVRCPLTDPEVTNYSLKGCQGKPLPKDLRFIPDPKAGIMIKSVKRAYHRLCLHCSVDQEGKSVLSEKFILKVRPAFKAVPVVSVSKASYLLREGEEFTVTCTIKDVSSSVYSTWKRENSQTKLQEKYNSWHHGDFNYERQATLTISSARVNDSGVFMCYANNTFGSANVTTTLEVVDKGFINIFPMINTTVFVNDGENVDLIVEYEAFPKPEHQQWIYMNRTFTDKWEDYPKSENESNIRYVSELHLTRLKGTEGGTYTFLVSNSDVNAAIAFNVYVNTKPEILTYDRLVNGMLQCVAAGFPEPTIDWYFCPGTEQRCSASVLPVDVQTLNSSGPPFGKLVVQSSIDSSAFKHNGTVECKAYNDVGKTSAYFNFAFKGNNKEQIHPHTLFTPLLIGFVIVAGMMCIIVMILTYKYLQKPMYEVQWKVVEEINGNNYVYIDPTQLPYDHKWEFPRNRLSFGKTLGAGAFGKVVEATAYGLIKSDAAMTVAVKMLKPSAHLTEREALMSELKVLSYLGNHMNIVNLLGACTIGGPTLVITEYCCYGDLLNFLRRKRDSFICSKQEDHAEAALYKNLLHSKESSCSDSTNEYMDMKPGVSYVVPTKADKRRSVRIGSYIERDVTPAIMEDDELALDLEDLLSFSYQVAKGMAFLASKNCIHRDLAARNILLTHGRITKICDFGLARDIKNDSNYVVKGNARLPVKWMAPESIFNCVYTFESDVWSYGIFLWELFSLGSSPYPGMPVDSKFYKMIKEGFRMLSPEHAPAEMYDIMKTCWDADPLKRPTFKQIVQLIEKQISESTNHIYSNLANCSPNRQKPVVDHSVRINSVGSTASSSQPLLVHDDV
T1 sequence (P10721 with tags, fused parts or gaps DEL694-753/D816V): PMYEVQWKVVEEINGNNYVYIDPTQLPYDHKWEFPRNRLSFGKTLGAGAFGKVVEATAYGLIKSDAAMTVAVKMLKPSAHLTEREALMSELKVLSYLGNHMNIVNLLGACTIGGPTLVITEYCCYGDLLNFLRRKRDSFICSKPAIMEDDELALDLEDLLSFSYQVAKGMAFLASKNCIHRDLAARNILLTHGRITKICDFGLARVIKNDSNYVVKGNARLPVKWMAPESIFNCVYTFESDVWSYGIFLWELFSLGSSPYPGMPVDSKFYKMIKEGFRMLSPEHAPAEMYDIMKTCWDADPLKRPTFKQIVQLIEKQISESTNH

Row | SMILES | IC50 (c-kit mutant D816V) [µM] | IC50 (c-kit kinase) [µM]
1 | Cn1cc(-c2cc3ncnc(N4CCN(C(=O)NCc5ccccc5)CC4)c3s2)cn1 [P-0626, N-benzyl-4-[6-(1-methylpyrazol-4-yl)thieno[3,2-d]pyrimidin-4-yl]piperazine-1-carboxamide] | 1 to 10 | 10 to 200
2 | O=C(NCc1ccc(F)cc1)N1CCN(c2ncnc3cc(-c4cnn(CCN5CCOCC5)c4)sc23)CC1 [P-0624, N-[(4-fluorophenyl)methyl]-4-[6-[1-(2-morpholinoethyl)pyrazol-4-yl]thieno[3,2-d]pyrimidin-4-yl]piperazine-1-carboxamide] | 0.0001 to 1 | 1 to 10
3 | CCCS(=O)(=O)Nc1ccc(-c2ncnc3[nH]c(-c4ccc(F)cc4)cc23)cc1F [P-0403, N-[2-fluoro-4-[6-(4-fluorophenyl)-7H-pyrrolo[2,3-d]pyrimidin-4-yl]phenyl]propane-1-sulfonamide] | 0.0001 to 1 | 0.0001 to 1
4 | O=C(Nc1cccc(C(F)(F)F)c1)N1CCN(c2ncnc3[nH]ccc23)CC1 [P-0167, 4-(7H-pyrrolo[2,3-d]pyrimidin-4-yl)-N-[3-(trifluoromethyl)phenyl]piperazine-1-carboxamide] | 10 to 200 | 10 to 200
5 | Cc1cc2c(-c3ccc(NS(=O)(=O)c4ccc(Cl)cc4)cc3F)ncnc2[nH]1 [P-0349, 4-chloro-N-[3-fluoro-4-(6-methyl-7H-pyrrolo[2,3-d]pyrimidin-4-yl)phenyl]benzenesulfonamide] | 1 to 10 | 1 to 10
6 | CCc1ccc(S(=O)(=O)NC2CCN(c3ncnc4[nH]c(-c5cn(C)nc5C)cc34)CC2)cc1 [P-0726, N-[1-[6-(1,3-dimethylpyrazol-4-yl)-7H-pyrrolo[2,3-d]pyrimidin-4-yl]-4-piperidyl]-4-ethyl-benzenesulfonamide] | 0.0001 to 1 | 0.0001 to 1
7 | O=C(NCc1ccc(F)cc1)N1CCN(c2ncnc3[nH]c(-c4ccncc4)cc23)CC1 [P-0101, N-[(4-fluorophenyl)methyl]-4-[6-(4-pyridyl)-7H-pyrrolo[2,3-d]pyrimidin-4-yl]piperazine-1-carboxamide] | 0.0001 to 1 | 1 to 10
8 | COc1ccc(S(=O)(=O)Nc2ccc(-c3ncnc4[nH]c(C)cc34)cc2)cn1 [P-0324, 6-methoxy-N-[4-(6-methyl-7H-pyrrolo[2,3-d]pyrimidin-4-yl)phenyl]pyridine-3-sulfonamide] | 1 to 10 | 1 to 10
9 | Cc1nn(C)cc1-c1cc2c(N3CCN(C(=O)N[C@@H](C)c4ccc(F)cc4)[C@H](C)C3)ncnc2[nH]1 [P-0715, (2R)-4-[6-(1,3-dimethylpyrazol-4-yl)-7H-pyrrolo[2,3-d]pyrimidin-4-yl]-N-[(1S)-1-(4-fluorophenyl)ethyl]-2-methyl-piperazine-1-carboxamide] | 0.0001 to 1 | 1 to 10
10 | Cc1nn(C)cc1-c1cc2ncnc(N3CCN(C(=O)N[C@@H](C)c4cccc(OC(F)F)c4)[C@H](C)C3)c2s1 [P-0587, (2R)-N-[(1S)-1-[3-(difluoromethoxy)phenyl]ethyl]-4-[6-(1,3-dimethylpyrazol-4-yl)thieno[3,2-d]pyrimidin-4-yl]-2-methyl-piperazine-1-carboxamide] | 0.0001 to 1 | 10 to 200
11 | C[C@H](NC(=O)N1CCN(c2ncnc3[nH]c(-c4ccc(F)cc4)cc23)CC1)c1cccc(OC(F)F)c1 [P-0072, N-[(1S)-1-[3-(difluoromethoxy)phenyl]ethyl]-4-[6-(4-fluorophenyl)-7H-pyrrolo[2,3-d]pyrimidin-4-yl]piperazine-1-carboxamide] | 0.0001 to 1 | 1 to 10
12 | COc1cc2c(-c3ccc(NS(=O)(=O)c4ccc(Cl)cc4)cc3F)ncnc2cc1OCCCN1CCCCC1 [P-0256, 4-chloro-N-[3-fluoro-4-[6-methoxy-7-[3-(1-piperidyl)propoxy]quinazolin-4-yl]phenyl]benzenesulfonamide] | 0.0001 to 1 | 0.0001 to 1
13 | Cc1cc2c(-c3ccc(NS(=O)(=O)c4ccc5oncc5c4)cc3)ncnc2[nH]1 [P-0303, N-[4-(6-methyl-7H-pyrrolo[2,3-d]pyrimidin-4-yl)phenyl]-1,2-benzoxazole-5-sulfonamide] | 10 to 200 | 10 to 200
14 | Cc1n[nH]c2ncnc(-c3ccc(NS(=O)(=O)c4ccc(Cl)cc4)cc3)c12 [P-0445, 4-chloro-N-[4-(3-methyl-1H-pyrazolo[3,4-d]pyrimidin-4-yl)phenyl]benzenesulfonamide] | 0.0001 to 1 | 1 to 10
15 | N#Cc1ccc(-c2cc3c(N4CCN(C(=O)NCc5ccc(F)cc5)CC4)ncnc3[nH]2)cc1 [P-0109, 4-[6-(4-cyanophenyl)-7H-pyrrolo[2,3-d]pyrimidin-4-yl]-N-[(4-fluorophenyl)methyl]piperazine-1-carboxamide] | 1 to 10 | 10 to 200
16 | COc1cc2ncnc(-c3ccc(NS(=O)(=O)C4CC4)cc3F)c2cc1OC [P-0270, N-[4-(6,7-dimethoxyquinazolin-4-yl)-3-fluoro-phenyl]cyclopropanesulfonamide] | 0.0001 to 1 | 10 to 200
17 | O=C(Nc1ccc(OC(F)(F)F)cc1)N1CCN(c2ncnc3[nH]c(C#CC4CC4)cc23)CC1 [P-0053, 4-[6-(2-cyclopropylethynyl)-7H-pyrrolo[2,3-d]pyrimidin-4-yl]-N-[4-(trifluoromethoxy)phenyl]piperazine-1-carboxamide] | 10 to 200 | 1 to 10
18 | COc1cc([C@H](C)NC(=O)N2CCN(c3ncnc4[nH]c(-c5ccc(F)cc5)cc34)C[C@H]2C)ccc1Cl [P-0649, (2R)-N-[(1S)-1-(4-chloro-3-methoxy-phenyl)ethyl]-4-[6-(4-fluorophenyl)-7H-pyrrolo[2,3-d]pyrimidin-4-yl]-2-methyl-piperazine-1-carboxamide] | 0.0001 to 1 | 1 to 10
19 | Cc1nn(C)cc1-c1cc2ncnc(C3CCN(C(=O)N[C@@H](C)c4ccc(F)cc4)CC3)c2s1 [P-0603, 4-[6-(1,3-dimethylpyrazol-4-yl)thieno[3,2-d]pyrimidin-4-yl]-N-[(1S)-1-(4-fluorophenyl)ethyl]piperidine-1-carboxamide] | 1 to 10 | 10 to 200
20 | CCc1ccc(S(=O)(=O)Nc2ccc(-c3ncnc4[nH]nc(C)c34)cc2)cc1 [P-0442, 4-ethyl-N-[4-(3-methyl-1H-pyrazolo[3,4-d]pyrimidin-4-yl)phenyl]benzenesulfonamide] | 0.0001 to 1 | 1 to 10
21 | Cc1nn(C)cc1-c1cc2ncnc(C3=CCN(C(=O)NCc4ccc(F)cc4)CC3)c2s1 [P-0613, 4-[6-(1,3-dimethylpyrazol-4-yl)thieno[3,2-d]pyrimidin-4-yl]-N-[(4-fluorophenyl)methyl]-3,6-dihydro-2H-pyridine-1-carboxamide] | 0.0001 to 1 | 1 to 10
22 | COc1ncc(CNC(=O)N2CCN(c3ncnc4[nH]c(-c5ccc(F)cc5)cc34)CC2)cc1F [P-0087, N-[(5-fluoro-6-methoxy-3-pyridyl)methyl]-4-[6-(4-fluorophenyl)-7H-pyrrolo[2,3-d]pyrimidin-4-yl]piperazine-1-carboxamide] | 0.0001 to 1 | 1 to 10
23 | O=C(Nc1ccc(F)cc1)N1CCN(c2ncnc3[nH]ccc23)CC1 [P-0183, N-(4-fluorophenyl)-4-(7H-pyrrolo[2,3-d]pyrimidin-4-yl)piperazine-1-carboxamide] | 10 to 200 | 1 to 10
24 | [2H]C([2H])([2H])S(=O)(=O)Nc1ccc(-c2ncnc3[nH]c(-c4ccc(F)cc4)cc23)cc1F [P-0367, 1,1,1-trideuterio-N-[2-fluoro-4-[6-(4-fluorophenyl)-7H-pyrrolo[2,3-d]pyrimidin-4-yl]phenyl]methanesulfonamide] | 0.0001 to 1 | 10 to 200
25 | CS(=O)(=O)Nc1ccc(-c2ncnc3cc(C4=CCN(C(=O)C5CC5)CC4)sc23)cc1 [P-0572, N-[4-[6-[1-(cyclopropanecarbonyl)-3,6-dihydro-2H-pyridin-4-yl]thieno[3,2-d]pyrimidin-4-yl]phenyl]methanesulfonamide] | 0.0001 to 1 | 0.0001 to 1
26 | COc1cc(-c2cc3c(N4CCC(NS(=O)(=O)c5ccc(OC(F)(F)F)cc5)CC4)ncnc3[nH]2)ccn1 [P-0460, N-[1-[6-(2-methoxy-4-pyridyl)-7H-pyrrolo[2,3-d]pyrimidin-4-yl]-4-piperidyl]-4-(trifluoromethoxy)benzenesulfonamide] | 10 to 200 | 10 to 200
27 | CS(=O)(=O)Nc1cccc(-c2cc3c(N4CCN(C(=O)NCc5ccc(F)cc5)CC4)ncnc3[nH]2)c1 [P-0107, N-[(4-fluorophenyl)methyl]-4-[6-[3-(methanesulfonamido)phenyl]-7H-pyrrolo[2,3-d]pyrimidin-4-yl]piperazine-1-carboxamide] | 0.0001 to 1 | 1 to 10
28 | CCCS(=O)(=O)Nc1cccc(-c2ncnc3[nH]c(-c4ccc(F)cc4)cc23)c1 [P-0434, N-[3-[6-(4-fluorophenyl)-7H-pyrrolo[2,3-d]pyrimidin-4-yl]phenyl]propane-1-sulfonamide] | 10 to 200 | 1 to 10
29 | COc1cc2ncnc(-c3ccc(S(=O)(=O)Nc4ccc(F)cc4)cc3F)c2cc1OCCCN1CCOCC1 [P-0248, 3-fluoro-N-(4-fluorophenyl)-4-[7-methoxy-6-(3-morpholinopropoxy)quinazolin-4-yl]benzenesulfonamide] | 1 to 10 | 10 to 200
